Reference: PMC10643403, “Targeting the Schistosoma mansoni nutritional mechanisms to design new antischistosomal compounds” (Scientific Reports, 2023)
pEC50, pIC50: −log10 of the molar value. ≈ marks a conversion by molar mass, not a printed value. Like-named read-outs stand apart in the source and are kept apart here.

Tests used:
[1] = system: S. mansoni adult worms; assay: In vitro antischistosomal assay on adult worms; type: cell-based, Schistosoma mansoni; details: for Activity against 49-day-old S. mansoni worms at 50 µM: adult worms, initial in vitro trial, 72 h; for pEC50: Schistosoma mansoni, based on mortality, after 72 h, 95% confidence interval in square brackets
Procedure: The antischistosomal assay was performed according to the methodology previously described[16],[19],[20]. Briefly, […], were incubated in flat bottom 24-well plates (Corning, New York, NY, USA) in RPMI 1640 culture medium (Vitrocell, Campinas, SP, Brazil) supplemented with 5% inactivated fetal calf serum, antibiotics (100 U/mL penicillin and 100 μg/mL streptomycin), and buffered with HEPES 25 mM (Sigma-Aldrich, St. Louis, MO, USA). Compounds were dissolved in dimethyl sulfoxide (DMSO at a final concentration of 0.5% v/v) and tested at 50 μM using PZQ 2 μM and DMSO 0.5% as positive and negative controls, respectively. Parasites were kept for 72 h (37 °C, 5% CO2, Panasonic, Osaka, Japan) and their viability was assessed using a Motic AE2000 inverted microscope (Vancouver, Canada)[21]. Each experiment was performed in triplicate and repeated at least three times. The negative control (using the highest concentration of DMSO, i.e., 0.5) and positive control (praziquantel 2 µM) were included.
Each concentration was tested in five replicates, and experiments were repeated once.

[2] = system: S. mansoni-infected mice; assay: In vivo antiparasitic study in an animal model of schistosomiasis; details: 400 mg/kg single oral dose, vs infected untreated control
Procedure: In vivo studies in S. mansoni-infected mice were performed according to standard protocols[20],[26]. Rodents (3 weeks old) were infected subcutaneously with 80 S. mansoni cercariae each and animals were randomly divided into experimental groups (five mice per group). Compounds were dissolved in 2% ethanol in water (v/v) and tested at a single oral dose (400 mg/kg) administered 42 days post-infection[27]. For comparison, praziquantel (400 mg/kg) and a corresponding amount of vehicle were administered to groups of five schistosomes-infected animals in the same period[28],[29]. […] The percentage of worm and egg reduction was calculated by means of the following equation: % reduction = [(value of untreated control group − value of treatment group)/value of untreated control group] × 100%[32]. The nonparametric Kruskal–Wallis test was used to compare the medians of the responses between the treatment and control groups using the GraphPad Prism software (version 8.0; CA, USA). Differences were considered statistically significant at P < 0.05[9].

[3] = system: Vero cells; assay: In vitro cytotoxicity assay (MTT) on Vero cells; type: cell-based, African green monkey; details: CC50 on Vero cells divided by EC50 on schistosomes (based on the highest concentration)
Procedure: (§1) The life cycle of S. mansoni (Belo Horizonte strain) is maintained through routine passage through Biomphalaria glabrata snails and Swiss mice at the Research Center on Neglected Diseases (Guarulhos University, SP, Brazil). Both rodents and snails were kept under environmentally controlled conditions (25 °C; humidity of 50%), with free access to food and water. Vero cells were obtained from the American Type Culture Collection (ATCC CCL-81; Manassas, VA, USA). Cells were routinely cultured in Dulbecco’s Modified Eagle Medium (DMEM) supplemented with 5% heat-inactivated fetal bovine serum and antibiotics (100 U/mL penicillin and 100 μg/mL streptomycin) at 37 °C in a humidified atmosphere containing 5% CO2 [17].
(§2) The cytotoxicity of the compounds on the Vero cells was determined by thiazolyl blue tetrazolium bromide (MTT) assay (Sigma-Aldrich) as previously described[21],[24]. […] After 72 h, MTT solution was added to each well and the absorbance at 595 nm was read on a spectrophotometer (Epoch, BioTek Instruments, Winooski, VT, USA).

[4] = In vitro cytotoxicity assay (MTT) on Vero cells; type: cell-based, African green monkey; details: African green monkey, Vero cells (ATCC CCL-81); Vero cells; MTT assay; 72 h; read-out: Mammalian cells CC50
Procedure: as §1, §2

[5] = system: Caenorhabditis elegans; type: in vivo; details: L4 stage, 24 h
Procedure: Caenorhabditis elegans wild-type (N2 strain), kindly provided by Dr. Carlos E. Winter (University of São Paulo), was routinely cultured at 22 °C on nematode growth medium (NGM) plates seeded with Escherichia coli (strain OP50) as a food source according to standard protocols.
For the drug assessment, the age-synchronized L1 stage was cultivated on standard NGM plates. When at the L4 stage, approximately 25 nematodes were transferred to each well of a 96-wells NGM plates containing the drug of interest at the desired concentration (10, 25, 50, 100, and 200 μM) along with a positive control (levamisole 10 μM) and a negative control (DMSO 0.5%). Nematodes were kept at 22 °C for 24 h, and their viability was verified microscopically using a Motic AE2000 inverted microscope (Vancouver, Canada) equipped with an ultra-high definition (UHD) camera and with a 48-inch 4K-UHD monitor system (LG Electronics, São Paulo, Brazil)[33].

[6] = system: cathepsin B1 from Schistosoma mansoni (SmCB1); design: method as in ref 2 (Fonseca et al.); details: ref 2 (Fonseca et al.), cited from earlier work
[7] = system: Schistosoma mansoni worms; design: method as in ref 1 (Santiago et al.); details: after 144 h; target not determined; ref 1 (Santiago et al.); cited from earlier work
[8] = female adult worms, read-out: S. mansoni EC50 Female
[9] = male adult worms, read-out: S. mansoni EC50 Male

Q: With `Clc1ccc2c(N/N=C/c3ccccc3)ccnc2c1` [GPQF-8Q1, 4-[(2E)-2-benzylidenehydrazinyl]-7-chloroquinoline] as the compound, how does the “Activity against 49-day-old S. mansoni worms at 50 µM” value (from here on “Activity”) [1] read?
A: Inactive

Q: What about the melting point of the same compound?
A: 220 to 224 °C

Q: Which “Activity” value [1] does the source give for `O=[N+]([O-])c1ccc(/C=N/Nc2ccnc3cc(Cl)ccc23)cc1` [GPQF-8Q3, 7-Chloro-4-[(2E)-2-(4-nitrobenzylidene)hydrazinyl]quinoline] here?
A: Inactive

Q: Which “Activity” value [1] does the source give for `COc1cc(/C=N/Nc2ccnc3cc(Cl)ccc23)ccc1O` [GPQF-8Q4, 4-{(E)-[2-(7-chloroquinolin-4-yl)hydrazinylidene]methyl}-2-methoxyphenol] here?
A: Inactive

Q: Which “Activity” value [1] does the source give for `O=[N+]([O-])c1ccc(/C=N/Nc2ccnc3cc(Cl)ccc23)o1` [GPQF-8Q6, 7-Chloro-4-{(2E)-2-[(5-nitrofuran-2-yl)methylidene]hydrazinyl}quinoline] here?
A: Inactive

Q: For `Clc1ccc2c(N/N=C/c3cccs3)ccnc2c1` [GPQF-8Q8, 7-Chloro-4-[(2E)-2-(thiophen-2-ylmethylidene)hydrazinyl]quinoline], which “Activity” value [1] is on record?
A: Active

Q: What about the pEC50 [1, 8] of the same compound?
A: 4.55

Q: And the pEC50 [1, 9]?
A: 4.45

Q: What about the “Reduction in worm burden” value ([2]; 42 days post-infection) of the same compound?
A: 50.8%

Q: What about the “Reduction in eggs found in feces” value ([2]; Kato-Katz technique) of the same compound?
A: 52.8%

Q: And the “Reduction in immature eggs found in the intestines” value ([2]; oogram)?
A: 45.8%

Q: And the “SI (selectivity index)” value [3]?
A: > 5.6

Q: What about the CC50 at 72 h [4] of the same compound?
A: > 200 µM

Q: What about the “Survival percentage of C. elegans” value ([5]; 10 μM) of the same compound?
A: 100%

Q: And the “Survival percentage of C. elegans” value ([5]; 25 μM)?
A: 100%

Q: And the “Survival percentage of C. elegans” value ([5]; 50 μM)?
A: 100%

Q: And the “Survival percentage of C. elegans” value ([5]; 100 μM)?
A: 100%

Q: And the “Survival percentage of C. elegans” value ([5]; 200 μM)?
A: 100%

Q: For `Cc1ccc(/C=N/Nc2ccnc3cc(Cl)ccc23)cc1` [GPQF-8Q10, 7-Chloro-4-[(2E)-2-(4-methylbenzylidene)hydrazinyl]quinoline], which “Time to worm mortality” value ([1]; 25 µM) is on record?
A: ≤ 24 h

Q: And the “Activity” value [1]?
A: Active

Q: And the pEC50 [1, 8]?
A: 4.81

Q: And the pEC50 [1, 9]?
A: 4.88

Q: What about the “SI (selectivity index)” value [3] of the same compound?
A: > 12.8

Q: What about the CC50 at 72 h [4] of the same compound?
A: > 200 µM

Q: What about the “Survival percentage of C. elegans” value ([5]; 10 μM) of the same compound?
A: 100%

Q: And the “Survival percentage of C. elegans” value ([5]; 25 μM)?
A: 100%

Q: What about the “Survival percentage of C. elegans” value ([5]; 50 μM) of the same compound?
A: 100%

Q: And the “Survival percentage of C. elegans” value ([5]; 100 μM)?
A: 100%

Q: What about the “Survival percentage of C. elegans” value ([5]; 200 μM) of the same compound?
A: 100%

Q: For `Fc1ccc(/C=N/Nc2ccnc3cc(Cl)ccc23)cc1` [GPQF-8Q12, 7-Chloro-4-[(2E)-2-(4-fluorobenzylidene)hydrazinyl]quinoline], which melting point is on record?
A: 236 to 241 °C

Q: Which “Activity” value [1] does the source give for `Clc1ccc2c(N/N=C/c3ccc(Cl)c(Cl)c3)ccnc2c1` [GPQF-8Q13, 7-Chloro-4-[(2E)-2-(3,4-dichlorobenzylidene)hydrazinyl]quinoline] here?
A: Inactive

Q: And the melting point?
A: 320 °C (dec.)

Q: Which “Activity” value [1] does the source give for `Oc1ccc(/C=N/Nc2ccnc3cc(Cl)ccc23)c(O)c1` [GPQF-8Q14, 4-{(E)-[2-(7-chloroquinolin-4-yl)hydrazinylidene]methyl}benzene-1,3-diol] here?
A: Inactive

Q: Which results are given for `C/C(=N\Nc1ccnc2cc(Cl)ccc12)c1ccccc1` [GPQF-8Q16, 7-Chloro-4-[(2E)-2-(1-phenylethylidene)hydrazinyl]quinoline]?
A: Activity against 49-day-old S. mansoni worms at 50 µM [1]: Inactive; melting point: 302 to 306 °C

Q: Which “Activity” value [1] does the source give for `C/C(=N\Nc1ccnc2cc(Cl)ccc12)c1ccc(O)cc1` [GPQF-8Q17, 4-{(1E)-1-[2-(7-chloroquinolin-4-yl)hydrazinylidene]ethyl}phenol] here?
A: Inactive

Q: For `C/C(=N\Nc1ccnc2cc(Cl)ccc12)c1ccc(C)cc1` [GPQF-8Q18, 7-Chloro-4-{(2E)-2-[1-(4-methylphenyl)ethylidene]hydrazinyl}quinoline], which “Activity” value [1] is on record?
A: Inactive

Q: And the melting point?
A: 310 °C (dec.)

Q: With `CCc1ccc(/C(C)=N/Nc2ccnc3cc(Cl)ccc23)cc1` [GPQF-8Q19, 7-Chloro-4-{(2E)-2-[1-(4-ethylphenyl)ethylidene]hydrazinyl}quinoline] as the compound, how does the “Activity” value [1] read?
A: Inactive

Q: And the melting point?
A: 300 to 304 °C

Q: Which “Activity” value [1] does the source give for `C/C(=N\Nc1ccnc2cc(Cl)ccc12)c1ccc(Cl)c(Cl)c1` [GPQF-8Q20, 7-Chloro-4-{(2E)-2-[1-(3,4-dichlorophenyl)ethylidene]hydrazinyl}quinoline] here?
A: Inactive

Q: And the melting point?
A: 294 to 298 °C

Q: For `C/C(CCc1ccccc1)=N\Nc1ccnc2cc(Cl)ccc12` [GPQF-8Q21, 7-Chloro-4-[(2E)-2-(4-phenylbutan-2-ylidene)hydrazinyl]quinoline], which “Activity” value [1] is on record?
A: Inactive

Q: What about the melting point of the same compound?
A: 161 to 166 °C

Q: Which “Activity” value [1] does the source give for `CC/C(C)=N/Nc1ccnc2cc(Cl)ccc12` [GPQF-8Q22, 4-[(2E)-2-(butan-2-ylidene)hydrazinyl]-7-chloroquinoline] here?
A: Inactive

Q: And the melting point?
A: 71 to 74 °C

Q: What does the source list for `CCC/C(C)=N/Nc1ccnc2cc(Cl)ccc12` [GPQF-8Q23, 7-Chloro-4-[(2E)-2-(pentan-2-ylidene)hydrazinyl]quinoline]?
A: Activity against 49-day-old S. mansoni worms at 50 µM [1]: Inactive; melting point: 250 °C (dec.)

Q: Which “Activity” value [1] does the source give for `C/C(=N\Nc1ccnc2cc(Cl)ccc12)C(C)(C)C` [GPQF-8Q25, 7-Chloro-4-[(2E)-2-(3,3-dimethylbutan-2-ylidene)hydrazinyl]quinoline] here?
A: Inactive

Q: And the melting point?
A: 228 to 232 °C

Q: For `C/C(=N\Nc1ccnc2cc(Cl)ccc12)c1ccc(Cl)cc1` [GPQF-8Q26, 7-Chloro-4-{(2E)-2-[1-(4-chlorophenyl)ethylidene]hydrazinyl}quinoline], which “Activity” value [1] is on record?
A: Inactive

Q: What about the melting point of the same compound?
A: 290 to 292 °C

Q: With `Cc1ccc(/C=N/NC(N)=S)cc1` [II] as the compound, how does the pIC50 [6] read?
A: 5.60

Q: With `NC(=S)N/N=C/c1ccc[nH]1` [IV] as the compound, how does the pIC50 ([6]; unit inferred) read?
A: 5.17

Q: Which “Survival percentage of C. elegans” value ([5]; 10 μM) does the source give for `c1ccc([C@H]2CN3CCSC3=N2)cc1` [LVM, levamisole, reference compound] here?
A: 0%

Q: With `COc1ccc(-c2cnc(N/N=C/N3C(=O)c4ccccc4C3=O)s2)cc1` [LpQM-45] as the compound, how does the “IC50 (worm motility, pairing, oviposition study)” value [7] read?
A: 32.09 µg/mL (≈ 84.8 µM)

Q: With `O=C(C1CCCCC1)N1CC(=O)N2CCc3ccccc3C2C1` (stereo not shown) [PZQ, praziquantel, reference compound] as the compound, how does the pEC50 [1, 8] read?
A: 6.00

Q: What about the pEC50 [1, 9] of the same compound?
A: 6.15

Q: What about the “SI (selectivity index)” value [3] of the same compound?
A: > 200

Q: What about the CC50 at 72 h [4] of the same compound?
A: > 200 µM

Q: With `NC(=S)N/N=C/c1ccncc1` [V] as the compound, how does the pIC50 ([6]; unit inferred) read?
A: 4.37
